# Results from US8309545B2, “Benzofuran potassium channel blockers and uses thereof” (Bionomics Limited, priority 2006, dated 2012).
# Target: T1, human Kv1.3 ion channel (Homo sapiens, UniProt P22001)
# T1 construct: Human Jurkat cells (which endogenously express hKv1.3) were used in place of rat L929 cells; endogenous in cells; host or cells: Human Jurkat cells
# Experiment: Inhibition of Kv1.3 currents, planar patch clamp in Jurkat cells
# Assay type: cell-based
# Details: Human Jurkat cells (endogenous hKv1.3), averaged dose response data from 3 or more cells
# Protocol: Potency of compounds to inhibit the human Kv1.3 ion channel were determined as follows:
# EC50 values for inhibition of Kv1.3 currents were determined by the method according to Schmitz et al (2005) Molecular Pharmacology 68, 1254-1270 with the following differences: • 1. Human Jurkat cells (which endogenously express hKv1.3) were used in place of rat L929 cells. • 2. All electrophysiology was performed using planar patch clamp (Port-A-Patch, Nanion Technologies Gmbh, Munich) in contrast to conventional patch clamp. • 3. EC50 values shown were determined from averaged dose response data obtained from 3 or more cells.
# T1 sequence (P22001 whole entry): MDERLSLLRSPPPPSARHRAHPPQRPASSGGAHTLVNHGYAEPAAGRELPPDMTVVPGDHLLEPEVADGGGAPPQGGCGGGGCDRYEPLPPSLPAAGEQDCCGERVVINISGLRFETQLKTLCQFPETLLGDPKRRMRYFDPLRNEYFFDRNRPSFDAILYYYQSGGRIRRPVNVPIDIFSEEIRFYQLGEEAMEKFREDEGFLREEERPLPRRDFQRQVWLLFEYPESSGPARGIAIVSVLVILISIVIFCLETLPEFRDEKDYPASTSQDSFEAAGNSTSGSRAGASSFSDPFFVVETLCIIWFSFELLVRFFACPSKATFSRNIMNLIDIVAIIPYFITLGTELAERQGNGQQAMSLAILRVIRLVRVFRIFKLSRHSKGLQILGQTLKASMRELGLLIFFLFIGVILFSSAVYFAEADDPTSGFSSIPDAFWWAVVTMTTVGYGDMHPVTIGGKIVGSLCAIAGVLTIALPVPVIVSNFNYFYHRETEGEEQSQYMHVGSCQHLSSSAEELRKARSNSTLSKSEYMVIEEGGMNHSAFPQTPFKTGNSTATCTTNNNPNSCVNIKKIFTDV
row,EC50,Compound
1,74 nM,"CC(=O)c1c(OCCn2cncn2)c(OCCCc2ccccc2)c2occc2c1C [Example 37, 1-[4-Methyl-7-(3-phenyl-propoxy)-6-(2-[1,2,4]triazol-1-yl-ethoxy)-benzofuran-5-yl]-ethanone]"
2,215 nM,"Cc1cc(=O)c2c(C)c3ccoc3c(OC[C@H]3C[C@H]3c3ccccc3)c2o1 (racemic) [Example 59a, rac-4,7-Dimethyl-9-(1S,2R-2-phenyl-cyclopropylmethoxy)-furo[3,2-g]chromen-5-one]"
3,229 nM,"Cc1cc(=O)c2c(C)c3ccoc3c(OCCOc3ccc(F)cc3)c2o1 [Example 43b, 9-[2-(4-Fluoro-phenoxy)-ethoxy]-4,7-dimethyl-furo[3,2-g]chromen-5-one]"
4,20 nM,"CC(=O)c1c(C)c2c(c(CCCCc3ccccc3)c1OCCN1CCOCC1)OCC2 [Example 68, 1-[4-Methyl-6-(2-morpholin-4-yl-ethoxy)-7-(4-phenyl-butyl)-2,3-dihydro-benzofuran-5-yl]-ethanone]"
5,66 nM,"CC(=O)c1c(OCCc2ccccn2)c(OCCCc2ccccc2)c2occc2c1C [Example 40, 5-Acetyl-4-methyl-7-(3-phenylpropoxy)-6-(2-pyridin-2-yl-ethoxy)benzofuran]"
6,74 nM,"CC(=O)c1c(OCCN2CCOCC2)c(OCCCc2ccc(F)cc2)c2occc2c1C [Example 47b, 5-Acetyl-7-(3-(4-fluorophenyl)propoxy)-4-methyl-6-(2-morpholinoethoxy)benzofuran]"
7,159 nM,"CC(=O)c1c(OCCN2CCOCC2)c(OC(C)CCc2ccccc2)c2occc2c1C (centres unmarked) [Example 57b, 1-[4-Methyl-7-(1-RS-methyl-3-phenyl-propoxy)-6-(2-morpholin-4-yl-ethoxy)-benzofuran-5-yl]-ethanone]"
8,331 nM,"CC(=O)c1c(OCCN2CCOCC2)c(OCC#Cc2ccccc2)c2occc2c1C [Example 60c, 1-[4-Methyl-6-(2-morpholin-4-yl-ethoxy)-7-(3-phenyl-prop-2-ynyloxy)-benzofuran-5-yl]-ethanone]"
9,51 nM,"CC(=O)c1c(OCCN2CCOCC2)c(OCCCc2ccccc2)c2occc2c1C [Example 19, 5-Acetyl-6-(2-morpholinoethoxy)-4-methyl-7-(3-phenylpropoxy)benzofuran]"
10,200 nM,"CC(=O)c1c(C)c2c(c(OCCCc3ccccc3)c1OCCN1CCOCC1)OCC2 [Example 65, 5-Acetyl-6-(2-morpholinoethoxy)-4-methyl-7-(3-phenylpropoxy)-2,3-dihydrobenzofuran]"
11,215 nM,"CC(=O)c1c(OCCN2CCOCC2)c(OCCCc2ccccc2)c2oc(Cl)cc2c1C [Example 41, 1-[2-Chloro-4-methyl-6-(2-morpholin-4-yl-ethoxy)-7-(3-phenyl-propoxy)-benzofuran-5-yl]-ethanone]"
12,600 nM,"CC(=O)c1c(OCCN2CCOCC2)c(OC[C@H]2O[C@@H]2c2ccccc2)c2occc2c1C [Example 63, 1-[4-Methyl-6-(2-morpholin-4-yl-ethoxy)-7-(2R,3R-3-phenyl-oxiranylmethoxy)-benzofuran-5-yl]-ethanone]"
13,362 nM,"CC(=O)c1c(OCCN2CCOCC2)c(OCC(C)(C)Cc2ccccc2)c2occc2c1C [Example 56b, 5-Acetyl-7-(2,2-dimethyl-3-phenylpropoxy)-4-methyl-6-(2-morpholinoethoxy)benzofuran]"
14,6600 nM,"CC(=O)c1c(OCCc2nnn[nH]2)c(OCCCc2ccccc2)c2occc2c1C [Example 55, 5-Acetyl-6-(3-(1H-tetrazol-5-yl)-ethoxy)-4-methyl-7-(3-phenylpropoxy)benzofuran]"
15,110 nM,"COc1c(C(C)=O)c(OCCN2CCOCC2)c(OCCCc2ccccc2)c2occc12 [Example 16, 5-Acetyl-6-(2-morpholinoethoxy)-4-methoxy-7-(3-phenylpropoxy)benzofuran]"
16,122 nM,"CC(=O)c1c(OCCn2ccnn2)c(OCCCc2ccccc2)c2occc2c1C [Example 36, 1-[4-Methyl-7-(3-phenyl-propoxy)-6-(2-[1,2,3]triazol-1-yl-ethoxy)-benzofuran-5-yl]-ethanone]"
17,100 nM,"CC(=O)c1c(OCCN2CCOCC2)c(OC[C@H]2C[C@@H]2c2ccccc2)c2occc2c1C [Example 58c, 1-[4-Methyl-6-(2-morpholin-4-yl-ethoxy)-7-(1S,2S-2-phenyl-cyclopropylmethoxy)-benzofuran-5-yl]-ethanone]"
18,81 nM,"CC(=O)c1c(OCCOc2cnccn2)c(OCCCc2ccccc2)c2occc2c1C [Example 31b, 1-{4-Methyl-7-(3-phenyl-propoxy)-6-[2-(pyrazin-2-yloxy)-ethoxy]-benzofuran-5-yl}-ethanone]"
19,47 nM,"CC(=O)c1c(OCCNC2CCCC2)c(OCCCc2ccc(F)cc2)c2occc2c1C [Example 48, 1-[6-(2-Cyclopentylamino-ethoxy)-4-methyl-7-(3-(4-fluoro-phenyl)-propoxy)-benzofuran-5-yl]-ethanone]"
20,576 nM,"CC(=O)c1c(OCCNCCO)c(OCCCc2ccccc2)c2occc2c1C [Example 39, 5-Acetyl-6-(2-(2-Hydroxy-ethylamino)-ethoxy)-4-methyl-7-(3-phenylpropoxy)-benzofuran]"
21,100 nM,"CC(=O)c1c(OCCn2nccn2)c(OCCCc2ccccc2)c2occc2c1C [Example 35, 1-[4-Methyl-7-(3-phenyl-propoxy)-6-(2-[1,2,3]triazol-2-yl-ethoxy)-benzofuran-5-yl]ethanone]"
22,140 nM,CC(=O)c1c(OCCN2CCN(C)CC2)c(OCCCc2ccccc2)c2occc2c1C [Example 26]

# The next lines start with the compound.
row,Compound,EC50
1,"CC(=O)c1c(OCCN2CCOCC2)c(OCCC(C)c2ccccc2)c2occc2c1C (centres unmarked) [Example 50b, 1-[4-Methyl-6-(2-morpholin-4-yl-ethoxy)-7-(3-phenyl-butoxy)-benzofuran-5-yl]-ethanone]",16 nM
2,COc1c(OCCCc2ccccc2)c(C(C)=O)c(C)c2ccoc12 [4 c)],225 nM
3,"CC(=O)c1c(OCCCCn2ccnc2)c(OCCCc2ccccc2)c2occc2c1C [Example 30, 5-Acetyl-6-(4-imidazol-1-yl-butoxy)-4-methyl-7-(3-phenylpropoxy)-benzofuran]",120 nM
4,"CCOC(=O)CC(=O)c1c(OCCN2CCOCC2)cc2occc2c1OCCCCOc1ccccc1 [Example 24, 3-[6-(2-Morpholin-4-ylethoxy)-4-(4-phenoxybutoxy)benzofuran-5-yl]-3-oxo-propionic acid ethyl ester]",590 nM
5,COc1c(C(C)=O)c(OCCCCOc2ccccc2)c(OCCN2CCOCC2)c2occc12 [14 c)],910 nM
6,"CC(=O)c1c(C)c2c(c(OCCC(C)c3ccc(F)cc3)c1OCCNC1CCCC1)OCC2 (centres unmarked) [Example 67, 1-{6-(2-Cyclopentylamino-ethoxy)-7-[3-RS-(4-fluorophenyl)-butoxy]-4-methyl-2,3-dihydro-benzofuran-5-yl}-ethanone]",8 nM
7,"COc1c(C(C)=O)c(OCCSc2ccccc2)c(OC)c2occc12 [Example 7, 5-Acetyl-4,7-dimethoxy-6-(2-(thiophenoxy)ethoxy)benzofuran]",680 nM
8,"CC(=O)c1c(OCCNC2CCCC2)c(OCCC(C)c2ccc(F)cc2)c2occc2c1C (centres unmarked) [Example 45b, 5-Acetyl-7-(3-[4-fluorophenyl]butoxy)-4-methyl-6-(2-Cyclopentylamino-ethoxy)benzofuran]",43 nM
9,CC(=O)c1c(OCCCCN2CCOCC2)c(OCCCc2ccccc2)c2occc2c1C [28 b)],640 nM
10,CC(=O)c1c(OCCn2nnc(N)n2)c(OCCCc2ccccc2)c2occc2c1C [21 a)],23 nM
11,"CC(=O)c1c(OCCc2ccccn2)c(OCCC(C)c2ccc(F)cc2)c2occc2c1C (centres unmarked) [Example 44d, 5-Acetyl-7-(3-[4-fluorophenyl]butoxy)-4-methyl-6-(2-pyridin-2-yl-ethoxy)benzofuran]",22 nM
12,"CC(=O)c1c(OCCN2CCOCC2)c(OCCC(C)(C)c2ccccc2)c2occc2c1C (racemic) [Example 46b, rac-1-[4-Methyl-7-(3-methyl-3-phenyl-butoxy)-6-(2-morpholin-4-yl-ethoxy)-benzofuran-5-yl]ethanone]",198 nM
13,COc1c(C(C)=O)c(OCCCCOc2ccccc2)c(OC)c2occc12 [Example 2],420 nM
14,COc1c(C(C)=O)c(OCCOc2ccccc2)c(OC)c2occc12 [5 b)],880 nM
15,COc1c(C(C)=O)c(OCCCc2ccccc2)c(CN(C)C)c2occc12 [13 b)],480 nM
16,COc1c(C(C)=O)c(OCCN(C)C)c(OCCCc2ccccc2)c2occc12 [15 b)],160 nM
17,COc1c(C(C)=O)c(OCCCOc2ccccc2)c(OC)c2occc12 [6 b)],720 nM
18,"COc1c(C(C)=O)c(OCCNc2ccccc2)c(OC)c2occc12 [Example 11, 5-Acetyl-4,7-dimethoxy-6-(2-(phenylamino)ethoxy)benzofuran]",980 nM
19,"COc1c(C(C)=O)c(OCCCc2ccccc2)c(OC)c2occc12 [Example 1, 5-Acetyl-4,7-dimethoxy-6-(3-(phenyl)propoxy)benzofuran]",290 nM
20,"COc1c(C(C)=O)c(OCCCNc2ccccc2)c(OC)c2occc12 [Example 12, 5-Acetyl-4,7-dimethoxy-6-(3-(phenylamino)propoxy)benzofuran]",690 nM
21,CC(=O)c1c(OCCn2ccnc2)c(OCCCc2ccccc2)c2occc2c1C [20 b)],68 nM
22,"CC(=O)c1c(OCCN(C)C)cc2occc2c1OCCCCOc1ccccc1 [Example 25, 5-Acetyl-6-(2-dimethylamino-ethoxy)-4-(4-phenoxybutoxy)benzofuran]",600 nM
23,CC(=O)c1c(OCCn2nnnc2N)c(OCCCc2ccccc2)c2occc2c1C [21 b)],160 nM
24,CC(=O)c1cc2ccoc2c(OCCCc2ccccc2)c1OCCN1CCOCC1 [22 c)],610 nM
25,CC(=O)c1c(OCCN2CCOCC2)cc2occc2c1OCCCCOc1ccccc1 [23 d)],174 nM
